Measurements reported in US11655217B2, “Pyrazole MAGL inhibitors” (H. Lundbeck A/S, priority 2017, dated 2023).

How the values were obtained:
FAAH = FAAH (Mus musculus (Mouse), UniProt O08914); test: Mouse brain proteomes from inhibitor treated mice (oral gavage, sacrificed 4 h after administration, ABPP analysis), FAAH; conditions: 5 mg/kg oral gavage
Experimental: (§1) Preparation of Mouse Brain Proteomes from Inhibitor Treated Mice.
(§2) Inhibitors were administered to wild-type C57Bl/6J by oral gavage in a vehicle of polyethylene glycol.

MAGL = MAGL (Mus musculus (Mouse), UniProt O35678); test: Mouse brain proteomes from inhibitor treated mice (oral gavage, sacrificed 4 h after administration, ABPP analysis); conditions: 5 mg/kg oral gavage
Chain of MAGL (O35678 whole entry): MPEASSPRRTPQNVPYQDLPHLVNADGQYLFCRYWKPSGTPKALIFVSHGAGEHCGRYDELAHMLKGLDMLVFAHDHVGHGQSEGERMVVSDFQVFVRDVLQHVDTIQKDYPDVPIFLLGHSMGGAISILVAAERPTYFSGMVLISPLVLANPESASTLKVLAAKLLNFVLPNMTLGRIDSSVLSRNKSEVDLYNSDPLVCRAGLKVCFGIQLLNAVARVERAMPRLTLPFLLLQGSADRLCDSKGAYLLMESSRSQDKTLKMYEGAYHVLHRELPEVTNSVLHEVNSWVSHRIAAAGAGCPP
Experimental: as §1, §2

Chain of FAAH (O08914 whole entry): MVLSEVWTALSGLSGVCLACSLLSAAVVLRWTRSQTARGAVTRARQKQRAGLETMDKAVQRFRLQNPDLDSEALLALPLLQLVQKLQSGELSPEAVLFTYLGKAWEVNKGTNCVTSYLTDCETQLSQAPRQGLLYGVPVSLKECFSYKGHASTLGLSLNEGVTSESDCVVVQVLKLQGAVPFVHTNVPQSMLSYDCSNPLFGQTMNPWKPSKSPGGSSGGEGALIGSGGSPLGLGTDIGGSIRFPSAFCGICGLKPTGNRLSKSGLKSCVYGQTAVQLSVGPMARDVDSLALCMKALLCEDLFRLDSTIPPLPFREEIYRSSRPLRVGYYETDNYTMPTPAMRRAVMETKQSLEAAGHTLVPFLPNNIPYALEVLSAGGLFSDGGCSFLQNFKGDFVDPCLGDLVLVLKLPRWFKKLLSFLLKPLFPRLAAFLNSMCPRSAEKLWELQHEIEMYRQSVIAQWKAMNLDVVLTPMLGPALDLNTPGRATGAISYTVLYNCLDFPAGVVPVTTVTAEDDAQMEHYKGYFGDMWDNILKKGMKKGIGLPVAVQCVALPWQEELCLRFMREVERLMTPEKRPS

Row | Structure (SMILES) | FAAH % inh. 5 mg/kg (mouse) (FAAH) | MAGL % inh. 5 mg/kg (mouse) (MAGL)
1 | O=C(O)c1ccn(C(=O)N2CCC3(CCCN3Cc3cc(N4CCCC4)cc(C(F)(F)F)c3)CC2)n1 [Example 88, 1-(1-(3-(pyrrolidin-1-yl)-5-(trifluoromethyl)benzyl)-1,8-diazaspiro[4.5]decane-8-carbonyl)-1-1H-pyrazole-3-carboxylic acid] | D (% inhibition is greater than or equal to 0% and less than 25%) | D (% inhibition is greater than or equal to 0% and less than 25%)
2 | O=C(O)c1ccn(C(=O)N2CCN(Cc3cccc(C(F)(F)F)c3N3CCCC3)CC2)n1 [Example 90, 1-(4-(2-(pyrrolidin-1-yl)-3-(trifluoromethyl)benzyl)piperazine-1-carbonyl)-1H-pyrazole-3-carboxylic acid] | D (% inhibition is greater than or equal to 0% and less than 25%) | D (% inhibition is greater than or equal to 0% and less than 25%)
3 | O=C(O)c1ccn(C(=O)N2CCN(Cc3ccc(C(F)(F)F)cc3Cl)CC2)n1 [Example 91, 1-(4-(2-chloro-4-(trifluoromethyl)benzyl)piperazine-1-carbonyl)-1H-pyrazole-3-carboxylic acid] | D (% inhibition is greater than or equal to 0% and less than 25%) | D (% inhibition is greater than or equal to 0% and less than 25%)
4 | O=C(O)c1ccn(C(=O)N2CCN(Cc3ccc(C(F)(F)F)cc3N3CC[C@H](F)C3)CC2)n1 [Example 92, (S)-1-(4-(2-(3-fluoropyrrolidin-1-yl)-4-(trifluoromethyl)benzyl)-piperazine-1-carbonyl)-1H-pyrazole-3-carboxylic acid] | D (% inhibition is greater than or equal to 0% and less than 25%) | D (% inhibition is greater than or equal to 0% and less than 25%)
5 | O=C(O)c1ccn(C(=O)N2CCC3(CCCN3Cc3ccc(C(F)(F)F)cc3N3CCCC3)CC2)n1 [Example 93, 1-(1-(2-(pyrrolidin-1-yl)-4-(trifluoromethyl)benzyl)-1,8-diazaspiro[4.5]decane-8-carbonyl)-1H-pyrazole-3-carboxylic acid] | D (% inhibition is greater than or equal to 0% and less than 25%) | D (% inhibition is greater than or equal to 0% and less than 25%)
6 | C[C@@H]1CCCN1c1cc(C(F)(F)F)ccc1CN1CCN(C(=O)n2ccc(C(=O)O)n2)CC1 [Example 95, (R)-1-(4-(2-(2-methylpyrrolidin-1-yl)-4-(trifluoromethyl)benzyl)piperazine-1-carbonyl)-1H-pyrazole-3-carboxylic acid] | D (% inhibition is greater than or equal to 0% and less than 25%) | D (% inhibition is greater than or equal to 0% and less than 25%)
7 | O=C(O)c1ccn(C(=O)N2CCN(Cc3cccc(Oc4ccc(Cl)cc4)c3)CC2)n1 [Example 98, 1-(4-(3-(4-chlorophenoxy)benzyl)piperazine-1-carbonyl)-1H-pyrazole-3-carboxylic acid] | D (% inhibition is greater than or equal to 0% and less than 25%) | D (% inhibition is greater than or equal to 0% and less than 25%)
8 | O=C(O)c1ccn(C(=O)N2CCN(Cc3ccc(C(F)(F)F)cc3N3CCCCC3)CC2)n1 [Example 100, 1-(4-(2-(piperidin-1-yl)-4-(trifluoromethyl)benzyl)piperazine-1-carbonyl)-1H-pyrazole-3-carboxylic acid] | D (% inhibition is greater than or equal to 0% and less than 25%) | D (% inhibition is greater than or equal to 0% and less than 25%)
9 | O=C(O)c1ccn(C(=O)N2CCN(Cc3ccc(C(F)(F)F)cc3N3CC[C@@H](F)C3)CC2)n1 [Example 101, (R)-1-(4-(2-(3-fluoropyrrolidin-1-yl)-4-(trifluoromethyl)benzyl)piperazine-1-carbonyl)-1H-pyrazole-3-carboxylic acid] | D (% inhibition is greater than or equal to 0% and less than 25%) | D (% inhibition is greater than or equal to 0% and less than 25%)
10 | C[C@H]1CCCN1c1cc(C(F)(F)F)ccc1CN1CCN(C(=O)n2ccc(C(=O)O)n2)CC1 [Example 104, (S)-1-(4-(2-(2-methylpyrrolidin-1-yl)-4-(trifluoromethyl)benzyl)piperazine-1-carbonyl)-1H-pyrazole-3-carboxylic acid] | D (% inhibition is greater than or equal to 0% and less than 25%) | D (% inhibition is greater than or equal to 0% and less than 25%)
11 | O=C(O)c1ccn(C(=O)N2CCN(Cc3ccc(Cl)cc3N3C4CCC3COC4)CC2)n1 [Example 105, 1-(4-(2-(3-oxa-8-azabicyclo[3.2.1]octan-8-yl)-4-chlorobenzyl)piper-azine-1-carbonyl)-1H-pyrazole-3-carboxylic acid] | D (% inhibition is greater than or equal to 0% and less than 25%) | D (% inhibition is greater than or equal to 0% and less than 25%)
12 | O=C(O)c1ccn(C(=O)N2CCN(Cc3ccc(C(F)(F)F)cc3N3CC4COCC4C3)CC2)n1 (centres unmarked) [Example 106, 1-(4-(2-(tetrahydro-1H-furo[3,4-c]pyrrol-5(3H)-yl)-4-(trifluoromethyl)benzyl)piperazine-1-carbonyl)-1H-pyrazole-3-carboxylic acid] | D (% inhibition is greater than or equal to 0% and less than 25%) | D (% inhibition is greater than or equal to 0% and less than 25%)
13 | O=C(O)c1ccn(C(=O)N2CCN(Cc3ccc(Cl)cc3N3CCCC3)CC2)n1 [Example 107, 1-(4-(4-chloro-2-(pyrrolidin-1-yl)benzyl)piperazine-1-carbonyl)-1H-pyrazole-3-carboxylic acid] | D (% inhibition is greater than or equal to 0% and less than 25%) | D (% inhibition is greater than or equal to 0% and less than 25%)
14 | CC(C)(O)C1CCN(c2cc(C(F)(F)F)ccc2CN2CCN(C(=O)n3ccc(C(=O)O)n3)CC2)CC1 [Example 109, 1-(4-(2-(4-(2-hydroxypropan-2-yl)piperidin-1-yl)-4-(trifluoromethyl)benzyl)piperazine-1-carbonyl)-1H-pyrazole-3-carboxylic acid] | D (% inhibition is greater than or equal to 0% and less than 25%) | D (% inhibition is greater than or equal to 0% and less than 25%)
15 | O=C(O)c1ccn(C(=O)N2CCN(Cc3ccc(Cl)cc3N3CC4COCC4C3)CC2)n1 (centres unmarked) [Example 111, 1-(4-(4-chloro-2-(tetrahydro-1H-furo[3,4-c]pyrrol-5(3H)-yl)benzyl)piperazine-1-carbonyl)-1H-pyrazole-3-carboxylic acid] | D (% inhibition is greater than or equal to 0% and less than 25%) | D (% inhibition is greater than or equal to 0% and less than 25%)
16 | NC(=O)C1CCN(c2cc(C(F)(F)F)ccc2CN2CCN(C(=O)n3ccc(C(=O)O)n3)CC2)CC1 [Example 113, 1-(4-(2-(4-carbamoylpiperidin-1-yl)-4-(trifluoromethyl)benzyl)piperazine-1-carbonyl)-1H-pyrazole-3-carboxylic acid] | D (% inhibition is greater than or equal to 0% and less than 25%) | D (% inhibition is greater than or equal to 0% and less than 25%)
17 | CC1CCC(C)N1c1cc(C(F)(F)F)ccc1CN1CCN(C(=O)n2ccc(C(=O)O)n2)CC1 (centres unmarked) [Example 114, 1-(4-(2-(2,5-dimethylpyrrolidin-1-yl)-4-(trifluoromethyl)benzyl)piperazine-1-carbonyl)-1H-pyrazole-3-carboxylic acid] | D (% inhibition is greater than or equal to 0% and less than 25%) | D (% inhibition is greater than or equal to 0% and less than 25%)
18 | O=C(O)c1ccn(C(=O)N2CC3CN(Cc4cccc(Oc5ccc(Cl)cc5)c4)CC3C2)n1 (centres unmarked) [Example 116, 1-(5-(3-(4-chlorophenoxy)benzyl)octahydro-pyrrolo[3,4-c]pyrrole-2-carbonyl)-1H-pyrazole-3-carboxylic acid] | D (% inhibition is greater than or equal to 0% and less than 25%) | D (% inhibition is greater than or equal to 0% and less than 25%)
19 | O=C(O)c1ccn(C(=O)N2CCN(Cc3ccc(C(F)(F)F)cc3N3C4CCC3COC4)CC2)n1 [Example 118, 1-(4-(2-(3-oxa-8-azabicyclo[3.2.1]octan-8-yl)-4-(trifluoromethyl)benzyl)piperazine-1-carbonyl)-1H-pyrazole-3-carboxylic acid] | D (% inhibition is greater than or equal to 0% and less than 25%) | D (% inhibition is greater than or equal to 0% and less than 25%)
20 | CC(=O)NC1CCN(c2cc(C(F)(F)F)ccc2CN2CCN(C(=O)n3ccc(C(=O)O)n3)CC2)CC1 [Example 119, 1-(4-(2-(4-acetamidopiperidin-1-yl)-4-(trifluoromethyl)benzyl)piperazine-1-carbonyl)-1H-pyrazole-3-carboxylic acid] | D (% inhibition is greater than or equal to 0% and less than 25%) | D (% inhibition is greater than or equal to 0% and less than 25%)
21 | O=C(O)c1ccn(C(=O)N2CCN(Cc3ccc(C(F)(F)F)cc3N3CCC(O)CC3)CC2)n1 [Example 120, 1-(4-(2-(4-hydroxypiperidin-1-yl)-4-(trifluoromethyl)benzyl)piperazine-1-carbonyl)-1H-pyrazole-3-carboxylic acid] | D (% inhibition is greater than or equal to 0% and less than 25%) | D (% inhibition is greater than or equal to 0% and less than 25%)
22 | O=C(O)c1ccn(C(=O)N2CCC(Oc3ccc(Cl)c(N4CCCC4)c3)CC2)n1 [Example 121, 1-(4-(4-chloro-3-(pyrrolidin-1-yl)phenoxy)piperidine-1-carbonyl)-1H-pyrazole-3-carboxylic acid] | D (% inhibition is greater than or equal to 0% and less than 25%) | D (% inhibition is greater than or equal to 0% and less than 25%)
